Test results taken from US20180042874A1, “METHOD FOR TREATING OSTEOPOROSIS” (China Medical University, priority 2016, published 2018).

Experiment: Body weight in ovariectomized osteoporosis rat model
Assay type: in vivo, Sprague-Dawley (SD) female rats
Protocol: Inducing osteoporosis animal models and experimental methods: • 1. 6-month old Sprague-Dawley (SD) female rats were purchased; • 2. These rats were divided into 7 groups, of which Group 1 was given pseudo-surgery, Group 2-7 underwent bilateral ovariectomies; • 3. On the 6th day after surgery, 1 mL/kg of vehicle alone was given orally to Group 1, Group 2 daily, Zoledronic Acid and Prolia were administered weekly by injections to Group 3, Group 4, respectively; 1, 3, 10 mg/kg of the compound of formula I was given orally every 3 days to Groups 5-7, respectively; • 4. Body weight and bone density were measured weekly, blood was drawn until the 118th day; • 5. Rats were then sacrificed to obtain kidneys, livers and rat tibia; • 6. Data were consolidated and processed.

Compound	effect on body weight (ovariectomized rats)	effect on body weight (rat, in vivo)
O=P(O)(O)C(O)(Cn1ccnc1)P(=O)(O)O [Zoledronic acid]	decreased the body weight	–
Proliaor: commercially available drug, injected weekly as comparator in ovariectomized rats	–	increased the body weight
